Measured values published in a melting point compilation (Tetko et al.; mined from patent text by program, amines drawn as free bases though some values may be those of a salt).

Row | SMILES | melting point [°C]
1 | c1ccc(OCCSCc2nnc(-c3ccc(OCCN4CCSCC4)cc3)o2)cc1 | 60
2 | O=C(Nc1ccc2oc(N3CCOCC3)cc(=O)c2c1)OCc1ccccc1 | 245 to 250
3 | O=C(O)Cn1cccc1 | 88 to 90
4 | Nc1nc(Nc2cccc(Br)c2)c2c(n1)[nH]c1ccccc12 | 234
5 | CCOC(=O)c1cn(C2CC2)c2c(OC(F)F)c(F)c(F)cc2c1=O | 224 to 226
6 | OC1CSC(Oc2ccc(-c3ccsc3)nc2)C(O)C1O (centres undefined) | 154
7 | CC1=C(C(=O)OC2CCCC2)C(c2c(F)cccc2Cl)C(C(=O)n2ccnc2)=C(C)N1 (centres undefined) | 150
8 | CN1C(=O)C(c2ccc(OC(F)F)cc2)(c2ccc(F)c(CF)c2)N=C1N (centres undefined) | 70 to 73
9 | COc1cc2c(cc1OC)CCNCC2 | 86 to 89
10 | O=C(O)Cc1cnc(Cc2ccc(NC(=O)c3ccc(Cl)c(Cl)c3)cc2)n2ccnc12 | 185 to 188
11 | CN1CC(CCN2CCN(c3ccccn3)CC2)OC1=O (centres undefined) | 108 to 109
12 | COc1ccc(-c2cc(OC3SCC(OC(C)=O)C(OC(C)=O)C3OC(C)=O)ccn2)cc1 (centres undefined) | 113 to 114
13 | CNc1ccc(N=O)cc1 | 115 to 117
14 | CCOCc1nc2c(N)nc3c(c2n1NC(C)C)CCCC3 | 144 to 146
15 | CCn1cc(C(=O)O)c(=O)c2cc(F)c(N3CC4CC3CN4Cc3ccccc3)c(F)c21 (centres undefined) | 195 to 198
16 | CN1CCC(NC(=O)Nc2ccccc2CCc2cc(C(C)(C)C)c(O)c(C(C)(C)C)c2)CC1 | 193 to 195
17 | CCOCc1nc2c(N)nc3ccccc3c2n1CC1(O)CCCC1 | 156 to 158
18 | CC(C)N1CCC(c2c[nH]c3ccc(NS(C)(=O)=O)cc23)CC1 | 104 to 108
19 | CC(C)Cc1nc[nH]n1 | 71 to 73
20 | C=CCC1(Cc2ncn(C(c3ccccc3)(c3ccccc3)c3ccccc3)c2C)CCc2c(C)c3ccccc3n2C1=O (centres undefined) | 83 to 85
21 | COC(=O)C1CC2CCC1N(C(=O)OC(C)(C)C)C2 (centres undefined) | 44 to 45
22 | CCOc1nc2ccnn2c2ncccc12 | 162
23 | CS(=O)(=O)Nc1ccc(CCCOCCCCCCNCC(O)c2cc(Cl)c(N)c(Cl)c2)cc1 (centres undefined) | 62 to 64
24 | O=C1[C@@H](O)[C@@H]2OCCC[C@@H]2N1Cc1ccccc1 (relative stereo) | 136 to 138
25 | Cc1[nH]cnc1CON1C(=O)c2ccccc2C1=O | 155 to 156

Row | SMILES | melting point [°C]
26 | O=C(O)c1ccccc1Sc1ccccc1C(=O)O | 226 to 227
27 | CCOC(=O)c1c(Nc2ccccc2SC)n[nH]c1C | 135 to 158
28 | Cc1cc(-c2cc(C(F)(F)F)n3ncc(-c4nc(-c5ccc(N)nc5)no4)c3n2)ccc1Cl | 262
29 | CC1=CC(OC(=O)c2ccc([N+](=O)[O-])cc2)C2OC1(OCCO)CC2(C)C (centres undefined) | 166 to 168
30 | C[C@@H](N(CCOCc1ccccc1)C(=O)c1ccc(OCC(F)(F)C(F)F)cc1)[C@](O)(Cn1cncn1)c1ccc(Cl)cc1Cl (relative stereo) | 51 to 62
31 | N#Cc1ccc(C(N)=O)s1 | 222 to 223
32 | CC(C)c1ccc(C(=O)C2=C(O)C(=O)N(c3ncc(S(=O)(=O)c4ccc([N+](=O)[O-])cc4)s3)C2c2ccc(OC(F)(F)F)cc2)cc1 (centres undefined) | 276 to 278
33 | COC(=O)c1cc(C2CCCO2)c(C(F)(F)F)cc1N (centres undefined) | 131 to 136
34 | Cc1ccc2c(=O)c(OC(=O)c3ccccc3)cn(C)c2c1 | 200 to 202
35 | CC(=O)c1ccc(N)c(Br)c1 | 59 to 62
36 | COc1ccc(-n2nc(Sc3ccccc3C)c(C)c(C#N)c2=O)cc1 | 144 to 146
37 | COc1cc(Cl)c2c(=O)c(Br)coc2c1 | 176 to 177
38 | CC(=O)NCc1ccc(CN2CCN(c3ncccn3)CC2)cc1 | 120 to 121
39 | COc1ccc(-c2c3c(cc4ccc(O)cc24)-c2ccc(O)cc2CO3)cc1 | 200 to 203
40 | CC(=O)NC[C@H]1CN(c2ccc(N3CCC(=C(C#N)C#N)CC3)c(F)c2)C(=O)O1 | 158 to 160
41 | COC(C)=CC(=O)Nc1cccc(N(C)C(N)=O)c1 | 166
42 | Cn1cc(-c2noc(C(N)CN3CCCCC3)n2)c2ccccc21 (centres undefined) | 146 to 147
43 | CN(C)Nc1cc(Oc2nn(C)c(C(F)(F)F)c2Cl)ccc1[N+](=O)[O-] | 72 to 76
44 | COc1ccc(C2(C#Cc3cc(C#N)cc(C#N)c3)CCC(=O)CC2)cc1OC1CCCC1 | 148
45 | COC(=O)c1sc2cccc(Cl)c2c1Br | 120 to 122
46 | Cc1c(C)c2c(c(C)c1NC(=O)N1CCCC1)C(c1ccc(C(C)C)cc1)CO2 (centres undefined) | 186 to 188
47 | COc1cc(C2c3cc4c(cc3C(N)C3COC(=O)C23)OCO4)cc(OC)c1O[Si](C)(C)C(C)(C)C (centres undefined) | 236 to 238
48 | COC(=O)c1cc(N2CCOCC2)nc(Cl)n1 | 135 to 138
49 | CC1(C)Oc2ccc(C#N)cc2[C@@H](N(C(N)=O)c2ccccc2)[C@@H]1O (relative stereo) | 226 to 227
50 | CCOC(=O)C1=C(CS(=O)CCN)NC(C)=C(C(=O)OC)C1c1cccc([N+](=O)[O-])c1 (centres undefined) | 170 to 172

Row | SMILES | melting point [°C]
51 | CNC(=NS(C)(=O)=O)NCCCCCc1nc(N)nc(N)n1 | 194 to 195
52 | CSC1=NC(C)(C)CCC(C)(C)N1 | 200 to 205
53 | CCOC(=O)C1=CCCC[C@H]1S(=O)(=O)Nc1ccc(F)cc1Cl | 47 to 49
54 | CSCCSC1=C(O)CC(C)(C)CC1=O | 57 to 59
55 | CN1C(=O)C2(COc3cc4c(cc32)OCCO4)c2c(O)cccc21 (centres undefined) | > 250
56 | CCOC(=O)c1c(C)nc(Cl)c([N+](=O)[O-])c1N | 73 to 75
57 | Cc1ccc(-c2cc3cc(C(=O)O)ccc3o2)cc1 | 279 to 283
58 | CC(=O)NCCC1Nc2ccccc2N2CCc3cccc1c32 (centres undefined) | 196 to 198
59 | O=C(NCc1ccc(F)cc1-n1cncn1)c1nc2n(c(=O)c1O)CCN2CCO | 220 to 222
60 | CCCCc1nc2c(N)nc3ccc(OCC(=O)N(CC)CC)cc3c2n1C | 186 to 188
61 | CCCNC(=O)C(C)NC(=O)C(C)NC(=O)C(C)NC(=O)OCc1ccccc1 (centres undefined) | 268 to 269
62 | O=C1c2ccccc2C(=O)N1c1ccc(S(=O)(=O)NCCC2(C(=O)NCC(F)(F)F)c3ccccc3-c3ccccc32)cc1 | 235 to 237
63 | CN1CCC(c2c[nH]c3ccc(NC(=O)c4cccc(F)c4)nc23)CC1 | 129 to 130
64 | COC(=O)C1N=C(c2ccccc2)c2cc(Cl)ccc2NC1=O (centres undefined) | 222
65 | CCCN1CC=C(c2ccc(Cl)cc2)C(C(=O)OCc2ccccc2)C1 (centres undefined) | 75 to 76.5
66 | O=[N+]([O-])c1c(Br)nn(CCO)c1NCc1ccccc1 | 133 to 135
67 | O=C(O)[C@H](Cc1ccc(C(F)(F)F)cc1)[C@@H](O)c1ccc(Cl)nc1 (racemic) | 145 to 146
68 | CCN(c1ccc(C(=O)O)cc1)c1cc2c3c(c1)CCCC3(C)CCC2 | 279 to 280
69 | CCN(CC)CC1CCCCN1CC(=O)N1c2ccccc2NC(=O)c2cscc21 (centres undefined) | 163 to 164
70 | CCc1nc2ccc3c(c2o1)C(CCNC(C)=O)CC3 (centres undefined) | 76 to 78
71 | COc1ccc2c(c1)c(C=C1SC(=N)NC1=O)c(C)n2C(=O)c1ccc(Cl)cc1 | 269 to 270
72 | CN1C(=O)OC[C@@H]1Cc1ccc([N+](=O)[O-])cc1 | 146 to 147
73 | Nc1nc(NC2Cc3ccccc3N(Cc3ccc(F)cc3F)C2)c2cn[nH]c2n1 (centres undefined) | 110 to 114
74 | Cc1ccc(C=CC(=O)NNC(=O)CCc2cc(C(C)(C)C)c(O)c(C(C)(C)C)c2)cc1 | 274 to 275
75 | CCCc1ccc(C=Nc2ccc(C#N)cc2)cc1 | 64.8 to 65.5

Row | SMILES | melting point [°C]
76 | Oc1ccnc2ccc(Cl)cc12 | 274 to 275
77 | Cc1[nH]c(=O)n(C2CCCCC2)c1-c1ccc(Oc2ccccc2)cc1 | 198
78 | N#Cc1c(N)nc2ccc(N3CCN(Cc4ccccc4)CC3)cc2c1O | 291
79 | COC1=CC=C(CN2CCN(CCCC(=O)c3ccc(F)cc3)CC2)C(F)C1=NNS(=O)(=O)c1ccc(C)cc1 (centres undefined) | 66 to 67
80 | COc1cc2ccccc2[nH]c1=O | 188 to 189
81 | CCOC(=O)c1ncn2c1CN(C)C(=O)c1c(F)cccc1-2 | 196 to 198
82 | CCCCC(O)(Cn1ccnc1)c1ccc(Cl)cc1Cl (centres undefined) | 78 to 80
83 | CCCCNC(=O)NC1Cc2ccc(C3=NNC(=O)CC3)cc2C1 (centres undefined) | 206 to 207
84 | CC(C)(C)C(=O)OCc1nc2cc3c(cc2c(=O)[nH]1)C(=O)CC3 | 185 to 190
85 | CC(C)c1cccc(C(C)C)c1NC(=O)[C@H](C)N(C)C(=O)OC(C)(C)C | 108 to 110
86 | O=C(Nc1ccccc1C(c1ccc(O)cc1)c1ccc(O)cc1)C1CCCCC1 | 220 to 223
87 | CCCCn1c(=O)cnn(-c2ccc(N3CCN(c4ccc(OC)cc4)CC3)cc2)c1=O | 181
88 | CCS(=O)CCC(=O)NNC(=O)N1Cc2ccccc2Oc2ccc(Cl)cc21 (centres undefined) | 185 to 188
89 | Cc1cc(NC(=O)N(C)c2ccccc2)cc(C)c1S(=O)(=O)C[N+](=O)[O-] | 117 to 118
90 | CC1C(=O)NC(=O)N(Cc2ccccc2)C1=O (centres undefined) | 128 to 129
91 | COCc1ccc(C)c(NC(=O)CC23CC4CC(CC(C4)C2)C3)c1 | 127 to 128
92 | C=C(CCC(C)C1CCC2C3=C(C(=O)CC21C)C1(C)CCC(=O)C(C)C1CC3O)C(C)C(=O)O (centres undefined) | 196 to 198
93 | Cc1cccc2c(=O)[nH]c(C3CCN(C)CC3)cc12 | 196 to 198
94 | CCN1CCN(CCCOc2cc3ncc(C#N)c(Nc4ccc(Sc5nc(C)c(C)n5CC)c(Cl)c4)c3cc2OC)CC1 | 229 to 230
95 | CC(c1ccc(-c2ccccc2)c(F)c1)c1csc(N)n1 (centres undefined) | 167 to 168
96 | Cc1c(-c2ccccc2)oc2c(C(=O)NCCCN3CCN(c4ccc(Cl)cc4)CC3)cccc2c1=O | 200 to 204
97 | CCOCc1nc2c(N(Cc3ccccc3)Cc3ccccc3)nc(C)cc2n1NC(=O)OC(C)(C)C | 139 to 141
98 | COc1ccc2c(cccc2[C@H]2CO[C@H](CCCNC(=O)OCC(=O)NC3CC3)OC2)c1 | 176
99 | Clc1nsnc1-c1ccccc1 | 33
